Reference: US20070026408A1, “Materials and methods for analysis of atp-binding cassette transporter gene expression” (priority 2003, published 2007)
Counter-ions that a name gives are not always drawn.

Tested on: abcB11
Assay: DT1 microarray drug screening, drug-treated HepG2: abcB11
Type: cell-based, human
Details: HepG2, vinblastine sulfate 25 nM, 8 h, standard 24
Protocol: The labelled cDNA target preparation was thawed and the 150 μl added to 850 ul hybridisation buffer (500 mM sodium Phosphate pH 6.0, 1% SDS, 1% BSA, 1 mM EDTA) in a 1.5 ml microtube and heated at 95° C. for 10 min.

## CC[C@]1(O)C[C@@H]2CN(CCc3c([nH]c4ccccc34)[C@@](C(=O)OC)(c3cc4c(cc3OC)N(C)[C@H]3[C@@](O)(C(=O)OC)[C@H](OC(C)=O)[C@]5(CC)C=CCN6CC[C@]43[C@@H]65)C2)C1 [vin, vinblastine sulfate]
  relative level of abcB11 gene expression: 9.053
